Where two headings read alike, the source gives them in different places.
How the values were obtained:
MTT assay, HL-7702 cells = assay type: cell-based, human; details: HL-7702 cells (normal liver cells); normal human liver cells, MTT, 72 h; read-out: Cytotoxic activity (IC50) HL-7702
Method: (§1) Primary human liver HL-7702 cells were purchased from SIBS (Shanghai Institutes for Biological Sciences, Shanghai, China) while MCF-7, A549, PC-9 and PC-3 cells were from ATCC (American Type Culture Collection, Rockville, MD, USA). HL-7702, PC-9 and A549 cells were incubated with Roswell Park Memorial Institute (RPMI) 1640 medium and MCF-7 were cultured in Dulbecco’s Modified Eagle’s Medium (DMEM) supplemented with 10% heat-inactivated fetal bovine serum (FBS) and 1% antibiotics (penicillin and streptomycin). PC-3, a human prostate adenocarcinoma cell, was maintained in Ham’s F-12 Medium supplemented with 10% FBS, 1% penicillin/streptomycin and 1% glutamine. All cells were cultured at 37 °C in an incubator containing 5% CO2. The cell viability was determined by using the MTT (methyl thiazolyl tetrazolium bromide) assay. Briefly, cells were seeded in 96-well plates (4 × 10^3 cells/well) overnight and exposed to the synthesized compounds with various concentrations. Camptothecin and dimethyl sulfoxide (DMSO) served as a positive control and a negative control respectively. After 72 h of incubation, 20 μL of MTT (5 mg/mL in phosphate buffer saline (PBS)) were added into each well. Dissolved yellowish MTT is converted to an insoluble purple formazan during incubation (4 h). In order to dissolve the formazan crystals, 100 μL of lysis solution (10% SDS (sodium dodecyl sulfate)-5% isobutyl alcohol-0.01M HCl) was added into per well. Finally, the optical density (OD) of solution in the plates was measured using a microplate reader at 570 nm after dissolving overnight. Cell viability was calculated by using the following formula: […].

PC-3 cells = test: MTT assay, PC-3 cells; assay type: cell-based; details: human prostate cancer cells, 72 h, read-out: Cytotoxic activity (IC50) PC-3
Method: as §1

PC-9 cells = test: MTT assay, PC-9 cells; assay type: cell-based; details: human non-small cell lung cancer cells, 72 h, read-out: Cytotoxic activity (IC50) PC-9
Method: as §1

MCF-7 cells = test: MTT assay, MCF-7 cells; assay type: cell-based; details: MCF7, human breast cancer cells, 72 h, read-out: Cytotoxic activity (IC50) MCF-7
Method: as §1

A549 cells = test: MTT assay, A549 cells; assay type: cell-based; details: human non-small cell lung cancer cells, read-out: Cytotoxic activity (IC50) A549
Method: as §1

melting point [°C]	Compound	IC50 at 72 h (MTT assay, HL-7702 cells) [µM]	IC50 (PC-3 cells) [µM]	IC50 (PC-9 cells) [µM]	IC50 (MCF-7 cells) [µM]	IC50 (A549 cells; Homo sapiens, A549, 72 h) [µM]	IC50 (A549 cells; 72 h) [µM]
	CC[C@@]1(O)C(=O)OCc2c1cc1n(c2=O)Cc2cc3ccccc3nc2-1 [CAMPTOTHECIN, camptothecin, reference compound]	0.11 ± 0.03	0.85 ± 0.01	0.09 ± 0.01	0.26 ± 0.05	0.1 ± 0.02	
	O=c1c2c3c(sc2nc(-c2ccc(Cl)cc2)n1Cc1ccccc1)CCCC3 [Compound 1]	> 100	> 100	> 100	> 100	> 100	
	O=c1c2c3c(sc2nc(-c2ccccc2)n1Cc1ccccc1)CCCC3 [Compound 2]	> 100	> 100	> 100	> 100	> 100	
	Cc1ccc(-c2nc3sc4c(c3c(=O)n2Cc2ccccc2)CCCC4)o1 [Compound 3]	55.17 ± 0.5	92.9 ± 2.29	86.1 ± 1.28	> 100	54.4 ± 1.83	
161 to 163	O=c1c2c3c(sc2nc(-c2ccc(C(F)(F)F)c(C(F)(F)F)c2)n1Cc1ccccc1)CCCC3 [Compound 4]	> 100	> 100	> 100	24.7 ± 2.04	58.2 ± 0.65	
185 to 187	O=c1c2c3c(sc2nc(-c2cccs2)n1Cc1ccccc1)CCCC3 [Compound 5]	> 100	> 100	81 ± 3.94	97.5 ± 0.13	> 100	
	Cc1cc(-c2nc3sc4c(c3c(=O)n2Cc2ccccc2)CCCC4)sc1C [Compound 6]	> 100	> 100	> 100	59.86 ± 0.34	17.4 ± 0.88	
	O=c1c2c3c(sc2nc(-c2ccc(F)cc2)n1CCc1ccc(O)cc1)CCCC3 [Compound 7]	> 100	> 100	44.8 ± 4.47	10.4 ± 1.32	< 10	6.86 ± 0.98
	Cc1cc(-c2nc3sc4c(c3c(=O)n2CCc2ccc(O)cc2)CCCC4)sc1C [Compound 8]	> 100	87.75 ± 0.63	92.97 ± 0.52	> 100	50.92 ± 0.07	
238 to 240	O=c1c2c3c(sc2nc(-c2cccc(Cl)c2)n1CCc1ccc(O)cc1)CCCC3 [Compound 9]	> 100	> 100	> 100	30.7 ± 0.29	19.6 ± 0.33	
	Cc1ccc(-c2nc3sc4c(c3c(=O)n2CCc2ccc(O)cc2)CCCC4)cc1 [Compound 10]	> 100	43.4 ± 2.73	49.7 ± 2.27	27.47 ± 0.02	< 10	8.51 ± 0.16
192 to 194	O=c1c2c3c(sc2nc(-c2ccco2)n1Cc1ccccc1)CCCCC3 [Compound 11]	> 100	> 100	> 100	65.63 ± 0.26	51.42 ± 0.46	
	O=c1c2c3c(sc2nc(-c2cccs2)n1CCc1ccc(O)cc1)CCCC3 [Compound 12]	> 100	21.9 ± 1.76	54.2 ± 2.06	36.4 ± 1.41	11.7 ± 0.12	
	Cc1cc(-c2nc3sc4c(c3c(=O)n2Cc2ccccc2)CCCCC4)sc1C [Compound 13]	> 100	92.5 ± 1.89	> 100	75.94 ± 0.17	49.86 ± 0.3	
186 to 188	Cc1cc(-c2nc3sc4c(c3c(=O)n2CCc2ccc(O)cc2)CCCCC4)sc1C [Compound 14]	68.64 ± 0.26	84.68 ± 0.48	86.33 ± 0.22	46.1 ± 0.48	49.8 ± 0.68	
170 to 172	O=c1c2c3c(sc2nc(-c2ccc(Cl)cc2)n1Cc1ccccc1)CCCCC3 [Compound 16]	> 100	> 100	> 100	> 100	81 ± 1.04	
146 to 148	O=c1c2c3c(sc2nc(-c2ccc(F)cc2)n1Cc1ccccc1)CCCCC3 [Compound 17]	> 100	> 100	> 100	> 100	> 100	
	Cc1ccc(-c2nc3sc4c(c3c(=O)n2Cc2ccccc2)CCCCC4)o1 [Compound 18]	> 100	92 ± 2.34	58.28 ± 0.18	96.36 ± 0.72	63.2 ± 0.03	
	O=c1c2c3c(sc2nc(-c2ccc(Cl)cc2)n1CCc1ccc(O)cc1)CCCCC3 [Compound 19]	19.16 ± 0.06	25.1 ± 0.37	26.7 ± 1.38	13.04 ± 0.11	< 10	6.26 ± 0.87
162 to 164	Cc1sc2nc(-c3cccs3)n(Cc3ccccc3)c(=O)c2c1C [Compound 20]	> 100	> 100	> 100	> 100	80.1 ± 0.83	
	Cc1sc2nc(-c3ccc(F)cc3)n(Cc3ccccc3)c(=O)c2c1C [Compound 21]	> 100	> 100	> 100	> 100	> 100	
251 to 253	Cc1sc2nc(-c3ccccc3)n(CCc3ccc(O)cc3)c(=O)c2c1C [Compound 22]	> 100	> 100	> 100	21.9 ± 0.82	> 100	
	Cc1sc2nc(-c3ccc(Cl)cc3)n(CCc3ccc(O)cc3)c(=O)c2c1C [Compound 23]	> 100	> 100	> 100	70.64 ± 0.59	46.14 ± 0.17	
	Cc1ccc(-c2nc3sc4c(c3c(=O)n2CCc2ccc(O)cc2)CCOC4)cc1 [Compound 24]	> 100	> 100	> 100	> 100	32.9 ± 1.84	
	O=c1c2c3c(sc2nc(-c2cccc(Cl)c2)n1Cc1ccccc1)COCC3 [Compound 25]	> 100	94.2 ± 1.83	> 100	> 100	44 ± 0.71	

Source: paper PMC6843832, “Synthesis of Novel Analogs of Thieno[2,3-d] Pyrimidin-4(3H)-ones as Selective Inhibitors of Cancer Cell Growth” (Biomolecules, 2019)
